In paper PMC9321231:
Where two headings read alike, the source gives them in different places.

How the values were obtained:
[1] = system: normal mouse fibroblast (BALB/3T3) cells; assay: Antiproliferative assay (MTT or SRB), normal fibroblasts BALB/3T3; format: cell-based; conditions: Balb/3T3 normal mouse fibroblasts; read-out: IC50 ± SD, antiproliferative activity
Procedure: Anticancer drugs are toxic to cancer cells, but also show some toxicity to healthy cells. […] The selectivity indexes for thiazoles 3a–3j against MV4-11 and A-549 cells were in general much higher than for MDA-MB-231 and UMUC-3 cells.
(§1) Cell preparation, an in vitro antiproliferative assay, and MTT and SRB cytotoxic tests were performed according to the literature.

[2] = biological target: T1, human neutrophil elastase (HNE) (Homo sapiens, UniProt P08246); assay: Kinetic analysis of the inhibition of human neutrophil elastase (Lineweaver-Burk, Dixon, secondary plots); format: biochemical; conditions: for Inhibition Type: Lineweaver-Burk and Dixon analysis; for Kis (enzyme-substrate-inhibitor dissociation constant): secondary plot of intercept versus inhibitor concentration; for Ki: secondary plot of slope versus inhibitor concentration, read-out: Ki (enzyme-inhibitor dissociation constant)
T1 sequence (P08246 30-267): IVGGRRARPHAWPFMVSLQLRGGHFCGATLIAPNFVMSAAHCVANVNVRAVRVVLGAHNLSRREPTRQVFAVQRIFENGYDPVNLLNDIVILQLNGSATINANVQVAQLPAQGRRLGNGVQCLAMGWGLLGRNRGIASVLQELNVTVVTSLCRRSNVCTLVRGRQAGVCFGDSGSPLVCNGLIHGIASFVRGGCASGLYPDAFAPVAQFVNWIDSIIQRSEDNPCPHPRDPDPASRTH
Procedure: Next, kinetic analysis of the mechanism of inhibition of human neutrophil elastase by thiazoles 3a–3j was determined using double-reciprocal plots of Lineweaver-Burk plots and Dixon analysis.
The first model is one in which the inhibitor binds better to the free enzyme (competitive mechanism), while the second model is one in which the inhibitor binds better to the enzyme-substrate complex (non-competitive mechanism). Next the secondary plots of slope versus concentration of test compounds were plotted to determine the enzyme-inhibitor dissociation constants Ki, and similarly as was used to determine enzyme-substrate-inhibitor dissociation constants Kis, the secondary plots of intercept versus concentration of tested compounds were plotted.
Kinetic studies were conducted in the presence of different concentrations of substrate (5, 25, 50 and 100 µM) and test compounds (in the range of 0–500 nM). The reaction conditions were the same as in the HNE inhibition assay and the reaction was monitored for 10 min at 25 °C with the same Ex an Em wavelengths. By Lineweaver–Burk plots, kinetic values such as the Michaelis–Menten constants and maximum velocity were determined. Next, two inhibition constants for inhibitor binding with free enzyme or enzyme–substrate complex (Ki and Kis) were obtained by plotting the secondary plot of the slopes of the determined straight lines or vertical intercept (1/Vmax) versus inhibitor concentration.

[3] = system: human biphenotypic B myelomonocytic leukemia (MV4-11) cells; assay: Antiproliferative assay (MTT or SRB), MV4-11; format: cell-based; conditions: for IC50: MV-4-11, read-out: IC50 ± SD, antiproliferative activity; for Calculated Selectivity Index SI: IC50 Balb/3T3 / IC50 MV-4-11
Procedure: as §1

[4] = system: urinary bladder carcinoma (UMUC-3) cells; assay: Antiproliferative assay (MTT or SRB), UMUC-3; format: cell-based, human; conditions: for IC50: UMUC-3, read-out: IC50 ± SD, antiproliferative activity; for Calculated Selectivity Index SI: IC50 Balb/3T3 / IC50 UMUC-3
Procedure: as §1

[5] = biological target: T1, human neutrophil elastase (HNE); assay: Human neutrophil elastase inhibition assay (spectrofluorimetric, MeOSuc-AAPV-AMC substrate)
Procedure: The inhibition of human neutrophil elastase was carried out by the spectrofluorimetric method using N-methoxysuccinyl-Ala-Ala-Pro-Val-7-amido-4-methylcoumarin (MeOSuc-AAPV-AMC) as substrate.

[6] = system: lung carcinoma (A549) cells; assay: Antiproliferative assay (MTT or SRB), A549; format: cell-based, human; conditions: for IC50: A-549, read-out: IC50 ± SD, antiproliferative activity; for Calculated Selectivity Index SI: IC50 Balb/3T3 / IC50 A-549
Procedure: as §1

[7] = system: human breast adenocarcinoma (MDA-MB-231) cells; assay: Antiproliferative assay (MTT or SRB), MDA-MB-231; format: cell-based; conditions: for IC50: MDA-MB-231, read-out: IC50 ± SD, antiproliferative activity; for Calculated Selectivity Index SI: IC50 Balb/3T3 / IC50 MDA-MB-231
Procedure: as §1

## CCC1(CC)C(=O)N(c2ccc(-c3csc(Nc4ccc(F)cc4)n3)cc2)C1=O [3b, 3,3-Diethyl-1-(4-(2-(4-fluorophenylamino)thiazol-4-yl)phenyl)azetidine-2,4-dione]
[1]
  IC50: 11.5 ± 1.47 µM
[2]
  Inhibition Type: mixed
  Kis (enzyme-substrate-inhibitor dissociation constant): 65.50 nM
  Ki: 0.0722 µM
[3]; Homo sapiens, MV4-11
  IC50: 5.92 ± 1.71 µM
[3]
  Calculated Selectivity Index SI: 1.94
[4]; Homo sapiens, UMUC3
  IC50: 9.07 ± 0.49 µM
[4]
  Calculated Selectivity Index SI: 1.27
[5]
  IC50: 0.176 ± 0.0135 µM
[6]; Homo sapiens, A549
  IC50: 7.31 ± 0.46 µM
[6]
  Calculated Selectivity Index SI: 1.57
other
  melting point: 155 to 157 °C
[7]; Homo sapiens
  IC50: 9.34 ± 1.12 µM
[7]
  Calculated Selectivity Index SI: 1.23

## CCC1(CC)C(=O)N(c2ccc(-c3csc(Nc4ccc(C(F)(F)F)cc4)n3)cc2)C1=O [3i, 3,3-Diethyl-1-(4-(2-(4-(trifluoromethyl)phenylamino)thiazol-4-yl)phenyl)-azetidine-2,4-dione]
[1]
  IC50: 10.1 ± 0.87 µM
[2]
  Inhibition Type: mixed
  Kis (enzyme-substrate-inhibitor dissociation constant): 425.00 nM
  Ki: 0.597 µM
[3]; Homo sapiens, MV4-11
  IC50: 5.47 ± 1.52 µM
[3]
  Calculated Selectivity Index SI: 1.85
[4]; Homo sapiens, UMUC3
  IC50: 10.7 ± 3.05 µM
[4]
  Calculated Selectivity Index SI: 0.95
[5]
  IC50: 0.168 ± 0.0181 µM
[6]; Homo sapiens, A549
  IC50: 6.42 ± 0.72 µM
[6]
  Calculated Selectivity Index SI: 1.58
other
  melting point: 170 to 172 °C
[7]; Homo sapiens
  IC50: 11.7 ± 3.7 µM
[7]
  Calculated Selectivity Index SI: 0.87

## CCC1(CC)C(=O)N(c2ccc(-c3csc(Nc4c(Cl)cc(Cl)cc4Cl)n3)cc2)C1=O [3j, 3,3-Diethyl-1-(4-(2-(2,4,6-trichlorophenylamino)thiazol-4-yl)phenyl)azetidine-2,4-dione]
[1]
  IC50: 34.5 ± 22.7 µM
[2]
  Inhibition Type: mixed
  Kis (enzyme-substrate-inhibitor dissociation constant): 38.00 nM
  Ki: 0.209 µM
[3]; Homo sapiens, MV4-11
  IC50: 5.11 ± 1.42 µM
[3]
  Calculated Selectivity Index SI: 6.75
[4]; Homo sapiens, UMUC3
  IC50: 25.3 ± 9.94 µM
[4]
  Calculated Selectivity Index SI: 1.36
[5]
  IC50: 0.249 ± 0.0328 µM
[6]; Homo sapiens, A549
  IC50: 6.21 ± 0.73 µM
[6]
  Calculated Selectivity Index SI: 5.55
other
  melting point: 78 to 80 °C
[7]; Homo sapiens
  IC50: 14.3 ± 3.45 µM
[7]
  Calculated Selectivity Index SI: 2.41

## CCC1(CC)C(=O)N(c2ccc(-c3csc(Nc4cc(C)cc(C)c4)n3)cc2)C1=O [3f, 1-(4-(2-(3,5-Dimethylphenylamino)thiazol-4-yl)phenyl)-3,3-diethylazetidine-2,4-dione]
[1]
  IC50: 23.8 ± 4.53 µM
[2]
  Inhibition Type: mixed type I inhibition
  Kis (enzyme-substrate-inhibitor dissociation constant): 426.00 nM
  Ki: 0.144 µM
[3]; Homo sapiens, MV4-11
  IC50: 5.89 ± 1.67 µM
[3]
  Calculated Selectivity Index SI: 4.04
[4]; Homo sapiens, UMUC3
  IC50: 19.7 ± 5.49 µM
[4]
  Calculated Selectivity Index SI: 1.21
[5]
  IC50: 0.244 ± 0.0194 µM
[6]; Homo sapiens, A549
  IC50: 7.28 ± 1.07 µM
[6]
  Calculated Selectivity Index SI: 3.27
other
  melting point: 140 to 143 °C
[7]; Homo sapiens
  IC50: 12.5 ± 1.79 µM
[7]
  Calculated Selectivity Index SI: 1.90

## CCC1(CC)C(=O)N(c2ccc(-c3csc(Nc4ccc(Cl)cc4)n3)cc2)C1=O [3a, 1-(4-(2-(4-Chlorophenylamino)thiazol-4-yl)phenyl)-3,3-diethylazetidine-2,4-dione]
[1]
  IC50: 10.9 ± 1.18 µM
[2]
  Inhibition Type: mixed
  Kis (enzyme-substrate-inhibitor dissociation constant): 426.00 nM
  Ki: 0.59 µM
[3]; Homo sapiens, MV4-11
  IC50: 7.15 ± 0.94 µM
[3]
  Calculated Selectivity Index SI: 1.52
[4]; Homo sapiens, UMUC3
  IC50: 10.7 ± 1.41 µM
[4]
  Calculated Selectivity Index SI: 1.02
[5]
  IC50: 0.227 ± 0.0351 µM
[6]; Homo sapiens, A549
  IC50: 7.01 ± 0.47 µM
[6]
  Calculated Selectivity Index SI: 1.55
other
  melting point: 164 to 166 °C
[7]; Homo sapiens
  IC50: 9.86 ± 0.94 µM
[7]
  Calculated Selectivity Index SI: 1.10

## CCC1(CC)C(=O)N(c2ccc(-c3csc(Nc4cccc5ccccc45)n3)cc2)C1=O [3h, 3,3-Diethyl-1-(4-(2-(naphthalen-1-ylamino)thiazol-4-yl)phenyl)azetidine-2,4-dione]
[1]
  IC50: 22.4 ± 8.62 µM
[2]
  Inhibition Type: mixed type I inhibition
  Kis (enzyme-substrate-inhibitor dissociation constant): 46.50 nM
  Ki: 0.0339 µM
[3]; Homo sapiens, MV4-11
  IC50: 6.64 ± 1.59 µM
[3]
  Calculated Selectivity Index SI: 3.38
[4]; Homo sapiens, UMUC3
  IC50: 13.3 ± 1.81 µM
[4]
  Calculated Selectivity Index SI: 1.69
[5]
  IC50: 0.0446 ± 0.00604 µM
[6]; Homo sapiens, A549
  IC50: 9.2 ± 1.36 µM
[6]
  Calculated Selectivity Index SI: 2.44
other
  melting point: 69 to 71 °C
[7]; Homo sapiens
  IC50: 14.6 ± 3.17 µM
[7]
  Calculated Selectivity Index SI: 1.53

## N.N.[Cl][Pt][Cl] [cisplatin, reference compound]
[1]
  IC50: 8.04 ± 3.16 µM
[3]
  IC50: 1.33 ± 0.17 µM
[4]
  IC50: 1.73 ± 0.17 µM
[6]
  IC50: 4.09 ± 1 µM
[7]
  IC50: 19.4 ± 6.8 µM

## CCC1(CC)C(=O)N(c2ccc(-c3csc(Nc4ccc5[nH]ncc5c4)n3)cc2)C1=O [3g, 1-(4-(2-(1H-Indazol-5-ylamino)thiazol-4-yl)phenyl)-3,3-diethylazetidine-2,4-dione]
[1]
  IC50: 6.03 ± 0.46 µM
[2]
  Inhibition Type: mixed type I inhibition
  Kis (enzyme-substrate-inhibitor dissociation constant): 171.25 nM
  Ki: 0.137 µM
[3]; Homo sapiens, MV4-11
  IC50: 5.38 ± 0.46 µM
[3]
  Calculated Selectivity Index SI: 1.12
[4]; Homo sapiens, UMUC3
  IC50: 7.89 ± 0.23 µM
[4]
  Calculated Selectivity Index SI: 0.76
[5]
  IC50: 0.312 ± 0.00576 µM
[6]; Homo sapiens, A549
  IC50: 5.59 ± 0.16 µM
[6]
  Calculated Selectivity Index SI: 1.08
other
  melting point: 186 to 188 °C
[7]; Homo sapiens
  IC50: 6.19 ± 0.42 µM
[7]
  Calculated Selectivity Index SI: 0.97

## CCC1(CC)C(=O)N(c2ccc(-c3csc(Nc4c(F)c(F)c(F)c(F)c4F)n3)cc2)C1=O [3d, 3,3-Diethyl-1-(4-(2-(perfluorophenylamino)thiazol-4-yl)phenyl)azetidine-2,4-dione]
[1]
  IC50: 46.5 ± 4.99 µM
[2]
  Inhibition Type: mixed
  Kis (enzyme-substrate-inhibitor dissociation constant): 49.33 nM
  Ki: 0.138 µM
[3]; Homo sapiens, MV4-11
  IC50: 5.4 ± 2.06 µM
[3]
  Calculated Selectivity Index SI: 8.61
[4]; Homo sapiens, UMUC3
  IC50: 62.7 ± 9.98 µM
[4]
  Calculated Selectivity Index SI: 0.74
[5]
  IC50: 0.11 ± 0.00441 µM
[6]; Homo sapiens, A549
  IC50: 15.3 ± 4.98 µM
[6]
  Calculated Selectivity Index SI: 3.04
other
  melting point: 162 to 164 °C
[7]; Homo sapiens
  IC50: 72.1 ± 26 µM
[7]
  Calculated Selectivity Index SI: 0.64
